What follows are molecules tested against T1, histamine 3 receptor (H3R) (Homo sapiens, UniProt Q9Y5N1) (assay: Binding assay with 3H-(R)α-Methylhistamine (competition binding, HR3-CHO membranes)). Conditions: competition binding vs 3H(R)α-Methylhistamine (1 nM), membrane of the human HR3-CHO cell line; Ki calculated from IC50 (Cheng-Prusoff).
T1 construct: expressed in transfected cells; host or cells: CHO
T1 sequence (Q9Y5N1 whole entry): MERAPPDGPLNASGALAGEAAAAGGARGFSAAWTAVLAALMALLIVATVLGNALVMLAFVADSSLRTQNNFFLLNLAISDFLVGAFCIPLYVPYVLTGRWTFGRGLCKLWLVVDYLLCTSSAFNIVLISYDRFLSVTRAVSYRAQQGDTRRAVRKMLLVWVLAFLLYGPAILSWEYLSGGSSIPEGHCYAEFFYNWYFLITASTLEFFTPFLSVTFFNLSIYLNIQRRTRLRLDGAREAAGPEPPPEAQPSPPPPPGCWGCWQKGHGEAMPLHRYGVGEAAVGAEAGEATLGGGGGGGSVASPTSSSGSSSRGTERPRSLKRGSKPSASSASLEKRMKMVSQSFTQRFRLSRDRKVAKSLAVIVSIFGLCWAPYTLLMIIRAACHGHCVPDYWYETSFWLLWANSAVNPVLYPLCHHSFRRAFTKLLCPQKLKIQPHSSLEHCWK
Procedure: Binding Assay with ^3H—(R)α-Methylhistamine
Saturation binding experiments were performed using HR3-CHO membranes prepared as described in Takahashi, K, Tokita, S., Kotani, H. (2003) J. Pharmacol. Exp. Therapeutics 307, 213-218.
An appropriate amount of membrane (60 to 80 μg protein/well) was incubated with increasing concentrations of ^3H(R)α-Methylhistamine di-hydrochloride (0.10 to 10 nM). Non specific binding was determined using a 200 fold excess of cold (R)α-Methylhistamine dihydrobromide (500 nM final concentration). The incubation was carried out at room temperature (in deep-well plates shaking for three hours). The final volume in each well was 250 μl. The incubation was followed by rapid filtration on GF/B filters (pre-soaked with 100 μl of 0.5% PEI in Tris 50 mM shaking at 200 rpm for two hours). The filtration was made using a cell-harvester and the filter plates were then washed five times with ice cold washing buffer containing 0.5 M NaCl. After harvesting, the plates were dried at 55° C. for 60 min, then we added scintillation fluid (Microscint 40, 40 microl in each well) and the amount of radioactivity on the filter was determined in Packard top-counter after shaking the plates for two hours at 200 rpm at room temperature.
Binding Buffer: 50 mM Tris-HCl pH 7.4 and 5 mM MgCl2x6H2O pH 7.4. Washing Buffer: 50 mM Tris-HCl pH 7.4 and 5 mM MgCl2x6H2O and 0.5 M NaCl pH 7.4.
Indirect measurement of affinity of H3R inverse agonists: twelve increasing concentrations (ranging from 10 μM to 0.3 nM) of the selected compounds were always tested in competition binding experiments using membrane of the human HR3-CHO cell line. An appropriate amount of protein, e.g. approximately 500 cpm binding of RAMH at Kd, were incubated for 1 hour at room temperature in 250 μl final volume in 96-well plates in presence of ^3H(R)α-Methylhistamine (1 nM final concentration=Kd). Non-specific binding was determined using a 200 fold excess of cold (R)α-Methylhistamine dihydrobromide.
All compounds were tested at a single concentration in duplicates. […] Ki's were calculated from IC50 based on Cheng-Prusoff equation (Cheng, Y, Prusoff, W H (1973) Biochem Pharmacol 22, 3099-3108).
Work on `O=C(c1ccc2[nH]c(C(=O)N3CCCCC3)cc2c1)N1CCN(C2CCCC2)CC1` [Example 5, [5-(4-Cyclopentyl-piperazine-1-carbonyl)-1H-indol-2-yl]-piperidin-1-yl-methanone] yielded a Ki of 28.7 nM. For `COc1cccc(-n2c(C(=O)N3CCC(F)(F)CC3)cc3cc(C(=O)N4CCN(C5CCCC5)CC4)ccc32)c1` [Example 84, [5-(4-Cyclopentyl-piperazine-1-carbonyl)-1-(3-methoxy-phenyl)-1H-indol-2-yl]-(4,4-difluoro-piperidin-1-yl)-methanone], the Ki was 35.6 nM. Work on `CC(C)N1CCN(C(=O)c2ccc3c(c2)cc(C(=O)N2CCS(=O)(=O)CC2)n3-c2cccc(Cl)c2)CC1` [Example 97, [1-(3-Chloro-phenyl)-5-(4-isopropyl-piperazine-1-carbonyl)-1H-indol-2-yl]-(1,1-dioxo-thiomorpholin-4-yl)-methanone] yielded a Ki of 13.4 nM. Work on `CC(C)N1CCN(C(=O)c2ccc3c(c2)cc(C(=O)N2CCC(F)(F)CC2)n3C2CCC2)CC1` [Example 150, [1-Cyclobutyl-2-(4,4-difluoro-piperidine-1-carbonyl)-1H-indol-5-yl]-(4-isopropyl-piperazin-1-yl)-methanone] yielded a Ki of 25.2 nM. `CC(C)N1CCN(C(=O)c2ccc3c(c2)cc(C(=O)N2CCS(=O)(=O)CC2)n3-c2ccc(S(C)(=O)=O)cc2)CC1` [Example 221, (1,1-Dioxothiomorpholin-4-yl)-[5-(4-isopropyl-piperazine-1-carbonyl)-1-(4-methanesulfonyl-phenyl)-1H-indol-2-yl]-methanone] showed a Ki of 22.6 nM. For `CC(C)N1CCCN(C(=O)c2ccc3[nH]c(C(=O)N4CCS(=O)(=O)CC4)cc3c2)CC1` [Example 245, (1,1-Dioxo-thiomorpholin-4-yl)-[5-(4-isopropyl-[1,4]diazepane-1-carbonyl)-1H-indol-2-yl]-methanone], the Ki was 41 nM.

— US7723325B2, “5-amido-indole-2-carboxamide derivatives” (Hoffman-La Roche Inc., priority 2006, dated 2010)
